Assay results from US20100144809A1, “NOVEL BENZAMIDINE DERIVATIVES USEFUL AS POTASSIUM CHANNEL MODULATORS” (Neuro Search A/S, priority 2007, published 2010).

Target: T1, human BK channels (Homo sapiens, UniProt Q12791)
T1 construct: expressed in transfected cells; host or cells: Xenopus oocytes
Test: Electrophysiological determination of BK current, two-electrode voltage clamp in Xenopus oocytes
Assay type: cell-based
Conditions: 30 μM; increase of BK current relative to the basal current; Xenopus oocytes expressing human BK channels
Experimental: In this experiment we investigated the influence of the compounds of the invention on the membrane currents when determined electrophysiologically on Xenopus Oocytes capable of expressing human BK channels, and the current through the channels is recorded using the classical two-electrode voltage clamp technique.
The results of these determinations are presented in Table 1 below, and presented as the increase of BK current relative to the basal current.

T1 sequence (Q12791 whole entry): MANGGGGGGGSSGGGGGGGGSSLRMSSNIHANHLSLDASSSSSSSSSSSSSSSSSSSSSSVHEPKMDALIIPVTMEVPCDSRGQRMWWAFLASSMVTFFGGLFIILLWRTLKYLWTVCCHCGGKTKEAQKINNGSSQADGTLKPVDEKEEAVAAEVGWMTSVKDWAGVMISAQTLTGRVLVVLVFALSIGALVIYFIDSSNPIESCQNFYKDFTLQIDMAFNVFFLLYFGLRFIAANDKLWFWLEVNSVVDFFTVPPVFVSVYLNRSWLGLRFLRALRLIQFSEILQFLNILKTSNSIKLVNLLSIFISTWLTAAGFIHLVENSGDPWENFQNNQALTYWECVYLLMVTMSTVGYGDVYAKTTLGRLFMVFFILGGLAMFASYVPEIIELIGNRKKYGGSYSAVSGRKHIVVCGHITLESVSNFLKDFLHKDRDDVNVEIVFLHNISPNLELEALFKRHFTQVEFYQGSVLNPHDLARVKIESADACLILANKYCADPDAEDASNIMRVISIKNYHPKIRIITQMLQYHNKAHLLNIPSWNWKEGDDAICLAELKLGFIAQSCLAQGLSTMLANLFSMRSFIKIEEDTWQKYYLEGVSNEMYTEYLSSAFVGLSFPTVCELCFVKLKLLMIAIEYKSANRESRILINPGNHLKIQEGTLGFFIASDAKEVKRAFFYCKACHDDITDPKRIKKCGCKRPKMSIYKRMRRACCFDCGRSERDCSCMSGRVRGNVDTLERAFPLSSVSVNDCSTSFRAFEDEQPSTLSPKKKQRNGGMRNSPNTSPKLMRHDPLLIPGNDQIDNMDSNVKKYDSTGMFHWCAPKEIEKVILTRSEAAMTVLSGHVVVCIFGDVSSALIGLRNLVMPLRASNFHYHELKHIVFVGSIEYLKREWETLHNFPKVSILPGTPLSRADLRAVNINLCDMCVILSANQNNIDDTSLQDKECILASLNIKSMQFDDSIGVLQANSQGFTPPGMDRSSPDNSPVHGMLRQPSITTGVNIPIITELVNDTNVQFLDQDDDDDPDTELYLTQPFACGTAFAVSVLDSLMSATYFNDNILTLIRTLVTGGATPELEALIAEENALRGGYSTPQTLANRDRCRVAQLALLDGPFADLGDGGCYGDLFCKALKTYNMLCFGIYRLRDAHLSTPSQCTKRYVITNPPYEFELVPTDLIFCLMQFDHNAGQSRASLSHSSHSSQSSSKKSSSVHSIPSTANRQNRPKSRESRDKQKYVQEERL

| Structure (SMILES) | Relative Increase of BK Current [%] |
| --- | --- |
| NNC(=Nc1ccc(-c2ccc(C(F)(F)F)cc2)cc1-c1nnn[nH]1)c1cc(C(F)(F)F)cc(C(F)(F)F)c1 [Compound 1, N-Amino-N′-[3-(1H-tetrazol-5-yl)-4′-trifluoromethyl-biphenyl-4-yl]-3,5-bis-trifluoromethyl-benzamidine] | 1118 |
| O=c1[nH]nc(-c2cc(C(F)(F)F)cc(C(F)(F)F)c2)n1-c1ccc(-c2ccc(C(F)(F)F)cc2)cc1-c1nn[nH]n1 [Compound 2, 5-(3,5-Bis-trifluoromethyl-phenyl)-4-[3-(2H-tetrazol-5-yl)-4′-trifluoromethyl-biphenyl-4-yl]-2,4-dihydro-[1,2,4]triazol-3-one] | 252 |
| ONC(=Nc1ccc(-c2ccc(C(F)(F)F)cc2)cc1-c1nnn[nH]1)c1cc(C(F)(F)F)cc(C(F)(F)F)c1 [Compound 3, N-Hydroxy-N′-[3-(1H-tetrazol-5-yl)-4′-trifluoromethyl-biphenyl-4-yl]-3,5-bis-trifluoromethyl-benzamidine] | 1342 |
